Data set [1] relates to 46 cell lines representing 6 different malignancies. Put plainly: Growth inhibition in a panel of cancer cell lines. It is filed as cell-based. Conditions: 6 malignancies, read-out: median IC50. The protocol: The live-cell assay for GFP reactivation in YB5 cells was done as previously described. Cells were treated with a single dose of drug 24 h after seeding at low density, and GFP fluorescence measured in a Millipore Guava flow cytometer (EMD, Millipore) instrument, or by imaging in a Cytation instrument (Agilent). Cancer cell lines (listed in Additional file 1: Fig. S1A) were obtained from ATCC or the Temple/Fox Chase Cellular Repository and cultured in the recommended medium. To measure growth inhibition, cells were seeded in 96-well plates at 40% confluency. Fresh medium was changed the next day and drugs were added directly. Drug-free fresh medium was changed on the fourth day. The cells were collected on day 5 by trypsin, suspended in medium, mixed with trypan blue (Thermo Fisher Scientific) (1:1 ratio), and counted using a LUNA II automated cell counter. Each sample was counted at least three times, and average numbers used for the analysis. Each treatment condition was performed in biological triplicates.

A short description of data set [2]: Drug toxicity: body weights and complete blood counts in tumor-bearing mice. It is filed as in vivo. Conditions: MV4-11 model, NSG mice, Fig. S4D.
A short description of the next data set: Pharmacokinetics in mice. The class given is in vivo. Conditions: mouse, plasma. On the procedure: Fig. 1 MC180295 enzymatic/growth inhibition and pharmacokinetics. A In vitro activity (IC50 values) of MC180295 against a panel of CDKs. B MC180295 IC50 values against 46 cell lines from 6 different cancer types. C Pharmacokinetic analyses after oral or IV administration of low-dose (1 mg/kg IV or 2.5 mg/kg oral) MC180295 to mice. D Pharmacokinetic analyses after IP administration of 10 mg/kg MC180295 to mice.
We next studied the pharmacokinetics (PK) of MC180295.

The test system of a further data set is HT29 cells. Briefly: HT29 colon cancer xenograft in NSG mice. The class given is in vivo. Conditions: HT29 s.c. in NSG mice, 20 mg/kg i.p. q.o.d. On the procedure:
Fig. 3 Antitumor, survival, and metabolic effects of MC180295 and its enantiomers, MC180379 and MC180380. A Antitumor effects of MC180295, MC180379, and MC180380. NSG mice were inoculated (s.c.) with 2 × 10^6 SW48 cells. Eleven days later, when tumors were palpable, 20 mg/kg MC180295, MC180379, MC180380, or vehicle were administered (i.p.) every other day (q.o.d.). Tumor sizes were measured using a caliper. […] C Antitumor effects of MC180379 and MC180380. NSG mice were inoculated (s.c.) with 1 × 10^6 HT29 cells. Twelve days later, when tumors were palpable, 20 mg/kg MC180379, MC180380, or vehicle were administered (i.p.) q.o.d. Tumor sizes were measured using a caliper. D HT29-xenografted mouse survival following (i.p.) q.o.d. dosing with 20 mg/kg MC180379 or MC180380. E NSG mice were inoculated (i.p.) with 5 × 10^5 MV4-11-luc cells. Four days later, when substantial tumor burden was evident by bioluminescence imaging, MC180379, MC180380, or vehicle were administered (i.p.) q.o.d at 20 mg/kg. Luciferase expression was quantified and calculated. F Mouse survival in days. […] G In vitro liver microsome stability and rat hepatocyte/Sprague–Dawley stability assay comparing MC180379 to MC180380. The dog breed was beagle and the mouse microsome strain was CD-1. […] Significances were calculated using log-rank (Mantel-Cox) or Student’s t tests. […]

The structures appear in SMILES notation. Like-named read-outs stand apart in the source and are kept apart here.

By IC50 is commonly meant the midpoint of a concentration-inhibition curve. As usually defined, the AUC(0-t) is exposure summed from dosing to a finite time, without extrapolation to infinity. Broadly, the Cmax is the peak of the concentration-time curve. What is called Tmax is the time from dosing to the highest level. Usually AUC stands for the area under the concentration-time curve, a measure of exposure. For orientation: clearance means the volume of plasma or blood freed of the substance per unit of time. Higher therefore signals a high capacity for elimination. The bioavailability is dose-corrected exposure relative to a reference, in per cent.

Regarding `Nc1nc(N[C@H]2C[C@@H]3CC[C@H]2C3)sc1C(=O)c1ccccc1[N+](=O)[O-]` (relative stereo) [MC180295], the IC50 in data set [1] was 171 nM. In data set [2], the body weights result is on record as “did not affect NSG mouse body weights”. Also, the AUC(0-t) in the data set “Pharmacokinetics in mice” (IP 10 mg/kg) is 1370 ng·h/mL. Moreover, the Cmax came out at 1070 ng/mL in “Pharmacokinetics in mice” (IP 10 mg/kg), 210 ng/mL in “Pharmacokinetics in mice” (IV - 1mg/kg) and 96 ng/mL in “Pharmacokinetics in mice” (Oral - 2.5mg/kg). The Tmax in “Pharmacokinetics in mice” (IP 10 mg/kg) came to 10.2 min; in the data set “Pharmacokinetics in mice” (Oral - 2.5mg/kg) it was 30 min. Also, the AUC(0-inf) in the data set “Pharmacokinetics in mice” (IP 10 mg/kg, read-out: AUC 0-inf_obs) is 3840 ng·h/mL. The results for the exposure (AUC) in the data set “Pharmacokinetics in mice” (IV - 1mg/kg) and in “Pharmacokinetics in mice” (Oral - 2.5mg/kg) were 110 ng·h/mL and 71 ng·h/mL, respectively. In the data set “Pharmacokinetics in mice” (IV - 1mg/kg), this molecule showed a clearance of 3.67 mL/min. The Vd in “Pharmacokinetics in mice” (IV - 1mg/kg, read-out: Vss) was 0.19 L. Further, the bioavailability in the data set “Pharmacokinetics in mice” (Oral - 2.5mg/kg vs IV - 1mg/kg, as fraction) was 26%; in the data set “Pharmacokinetics in mice” (oral dose of 2.5 mg/kg), 26%. The half-life in the data set “Pharmacokinetics in mice” (ip, 10 mg/kg, IP 10 mg/kg, read-out: T1/2 (converted)) is 947 min; in the data set “Pharmacokinetics in mice” (ip, 10 mg/kg, IP at 10 mg/kg, read-out: half-life (converted)) it was 948 min; in the data set “Pharmacokinetics in mice” (iv, 1 mg/kg, IV - 1mg/kg, read-out: T1/2 (converted)), 51.6 min; in the data set “Pharmacokinetics in mice” (iv, 1 mg/kg, IV dose of 1 mg/kg, read-out: half-life (converted)) it was 51.6 min; in the data set “Pharmacokinetics in mice” (po, 2.5 mg/kg, Oral - 2.5mg/kg, read-out: T1/2 (converted)) it was 79.2 min; in “Pharmacokinetics in mice” (po, 2.5 mg/kg, oral dose of 2.5 mg/kg, read-out: half-life (converted)), 78 min.
As for `Nc1nc(N[C@H]2C[C@@H]3CC[C@H]2C3)sc1C(=O)c1ccccc1[N+](=O)[O-]` [MC180380], the survival entry in the data set on HT29 cells is listed as “extending survival longer than MC180379”.

(Values after publication PMC10765884, “MC180295 is a highly potent and selective CDK9 inhibitor with preclinical in vitro and in vivo efficacy in cancer” (Clinical Epigenetics, 2024).)
